Assays:
[1] = Body weight of rats on cafeteria diet, no pre-treatment (Table 5); assay type: in vivo, rat; details: cafeteria diet for 2 weeks, 300 mg/kg daily oral, no pre-treatment
From the text: (§1) The weight of treated animals was statistically less than the weight of obese control rats and statistically indistinguishable from that of lean control rats.

[2] = tested on: A549 cells; test: Growth/viability of A549 lung cancer cells in culture (cell count); assay type: cell-based, human; details: concentration that reduces the number of cells to half
Experimental: FIG. 3A. Cancer cells (A549) were treated with various concentrations of OHOD and MOD11 to determine whether the effect was dependent on the concentration. […] These cells were treated with different concentrations (0-400 μM) of OHOD and MOD11 and the number of cells was determined by flow cytometry.
FIG. 3B. Cancer cells (A549) were treated with compounds indicated on the horizontal axis for 48 hours at 150 μM. Then, the cells were counted and their number and percent of untreated (control) represented on the vertical axis.
Also, a series of α-derivatives of cis-monounsaturated fatty acids were used to investigate their effectiveness in cancer treatment. Two types of experiment were performed. Firstly, the dependency of the anti-tumour effect on concentration was investigated. To perform these experiments, human lung cancer cells (A549) were cultivated in RPMI medium, supplemented with 10% foetal bovine […], 10 mM Hepes (pH 7.4), 2 mM glutamine, 2 g/l bicarbonate, 1 g/l glucose, 100 units/ml penicillin, 0.1 mg/ml streptomycin, 0.25 μg/ml Amphotericin B, at 37° C. and in the presence of 5% CO2. In a first experimental series, these cells were treated with various concentrations (0-400 μM) of OHOD and MOD11 and the number of cells was determined by flow cytometry (FIG. 3A). […] In a second series, the anti-tumour effectiveness on A549 lung cancer cells was investigated at a single concentration (150 μM) and a time of 48 hours (FIG. 3B). […] Obviously, among the previous molecules, some lacked both modifications on the α-carbon and the double bond in cis configuration (EO, HDO, ODO) and had no therapeutic effect. […]

[3] = Levels of cholesterol, triglycerides and glucose in rats after oral treatment; assay type: in vivo, rat; details: rats, daily dose of 600 mg/kg oral; untreated controls = 100%
Experimental: FIG. 13. The four bars, from left to right respectively, show the effect of treatments with vehicle (control, first bar), OHOD at 200 mg/kg (second bar), OHOD at 400 mg/kg (third bar) and OHOD at 600 mg/kg (fourth bar) on the cholesterol levels (group of four bars to the left), triglycerides (group of four bars in the middle) and glucose (group of four bars to the right). The treatments were oral in all cases and were maintained for 30 days. The values indicated are the average obtained in 6 animals per group.
FIG. 14. Effect of treatment with vehicle (control) or with the fatty acids of the invention (600 mg/kg) on the levels of cholesterol, triglycerides and glucose. The values indicated are the average of the values obtained in 6 animals. Each group of three bars represents treatment with a different fatty acid with the left bar corresponding to cholesterol, the middle bar to triglycerides and the right bar to glucose.
Metabolic diseases form a set of pathologies characterised by the accumulation or deficit of certain molecules (cholesterol, triglycerides, glucose, etc.) in the serum or tissues. These changes are the reflection of dysfunctions that are normally associated with errors in the activity of certain enzymes or in the control of these proteins. Among the most important metabolopathies are hypercholesterolemia (elevated levels of cholesterol), hypertriglyceridemia (elevated levels of triglycerides) and diabetes (elevated levels of glucose). These pathologies have high rates of incidence, morbidity and mortality, so that treatment is a first order necessity. […] For these experiments, the dose of fatty acid indicated (0, 200, 400 and 600 mg/kg) was supplied daily via the oral route. At the end of the treatment (30 days), blood was sampled from control and treated animals (n=6) and the levels of cholesterol, triglycerides and glucose were determined using standard colorimetric methods.
(§2) In a further experiment, the effect of various molecules at a single dose (600 mg/kg) was investigated. […] In this sense, modification on the α-carbon and the double bond in cis configuration are crucial elements for producing the therapeutic effect indicated above. […] Finally, the effect of α-derivatives of cis-monounsaturated fatty acids on the prevention of obesity was investigated. For this, a model of rat obesity induced by a cafeteria diet, where the hypercaloric food increases the weight of the animals very markedly, was used. There were various experimental groups (see Table 3), each of which consisted of 6 female Wistar Kyoto rats of 250-300 g in weight. All the animals received a standard diet for 2 weeks. In addition, 2 of the groups received an oral preventative pre-treatment of vehicle and the other groups received 300 mg/kg of the fatty acids indicated below. Afterwards, one of the control groups was maintained on a standard diet (lean control) and the other was fed on a cafeteria diet (obese control). The treated animal groups were fed on the cafeteria diet. Preventative pre-treatment was maintained for all the groups. After two weeks on these diets, the lean control group had increased their body weight by an average of 16±16 g, while the obese control group had increased their body weight by an average of 43±17 g (statistically significance difference, p<0.01).

[4] = tested on: SF767 human brain cancer cells; test: Tumour volume in nude mice infected with SF767 human brain cancer cells; assay type: in vivo; details: 600 mg/kg daily for 50 days, p<0.001 vs control
Experimental: FIG. 6A. Effect of different salts of OHOD on human lung cancer in an animal cancer model. The volume of tumours in nude mice infected with SF767 human brain cancer cells (expressed as a percent compared to control) receiving various treatments. The animals received a vehicle (water: Control), 600 mg/kg of OHOD in the form of free fatty acid (OHOD), 600 mg/kg of sodium salt of OHOD (Na-OHOD) or 600 mg/kg of ammonium salt of OHOD (NH3OHOD) daily for 50 days.
FIG. 6B. Effect of different salts of OHOD on human lung cancer in an animal cancer model. The effect of different doses of sodium salt of OHOD (Na-OHOD) are shown on tumour volumes in mice infected with SF767 cells and treated with vehicle (control, 0 mg/kg), 100 mg/kg (100), 200 mg/kg (200), 400 mg/kg (400) and 600 mg/kg (600) for 50 days. * p<0.05; ***p<0.001.
One important characteristic of the molecules covered in the present invention is that they can form various types of salts. FIG. 6A and Table 5 show the therapeutic effects of various α-derivatives of cis-monounsaturated fatty acids and their salts. […] The specificity of this effect is determined by the relation between the dose and the effect these molecules have on the volume of human tumours implanted in animals (FIG. 6B).

[5] = tested on: SF767 human tumour cells; test: Growth of SF767 tumour cells in culture; assay type: cell-based; details: concentration that reduces the number of cells to half
Experimental: In a second experimental series, designed to discover whether these molecules are effective in treatment of different types of tumours, the effect of OHOD at various concentrations on human cells of different types of cancer was studied. These experiments were performed as described before, except that the M220 and HT-29 cell lines were cultured in DMEM medium and the MDA-MB-231 line was incubated in Leibowitz L-15 medium supplemented with 15% foetal bovine […]. […] Where the nature of the tumour process requires, application can be topical (use on the skin of active products for the treatment of melanoma and other cutaneous abnormalities of cancerous nature), which can be considered as cosmetic treatments when attempts are made to correct aesthetic defects.

[6] = tested on: hypertensive rats; test: Arterial pressure in hypertensive rats after 8-day treatment (Table 5); assay type: in vivo, rat; details: arterial pressure, hypertensive rats, 8-day treatment, 400 mg/kg oral
[7] = tested on: cyclooxygenase-2 (COX-2); test: Cellular concentration of COX-2 in U937 differentiated monocytes (immunoblot); assay type: cell-based, human; details: 250 μM, 6 hours; compared with fatty acids not of Formula I, p<0.05
Experimental: FIG. 19B. Effect of various fatty acids in the inhibition (concentration of protein) of cyclooxygenase-2 (immunoblot of COX-2). […] Cell cultures (U937 differentiated monocytes) were treated with the fatty acids of the invention (250 μM, 6 hours).
(§3) In an additional study on the release of various proinflammatory cytokines (IL-1b, IL-6, IL-8, IL-10) and TNF-α in U937 monocytes stimulated with bacterial lipopolysaccharide (LPS), a marked reduction in the levels of these molecules was observed after treatments with OHHD at a concentration of 250 μM and 72 h incubation (Table 4). The effect of the α-derivatives of cis-monounsaturated fatty acids (250 μM, 6 h) on the activity and expression of the COX-1 and COX-2 cyclooxygenases was investigated in the same system.

[8] = tested on: TNF-α; test: Proinflammatory cytokines in U937 monocytes stimulated with LPS; assay type: cell-based, human; details: 250 μM, 72 h; Control 15 ± 6, LPS 1504 ± 7
Experimental: (§4) FIG. 18. Levels of interleukin 6 IL-6 (left bar) and […] TNF-α (right bar) in human monocytes in the absence (control) or presence of a pro-inflammatory treatment with bacterial lipopolysaccharide (LPS). Cells treated with LPS were cultured in the absence (Control+LPS) or presence of various fatty acids shown on the horizontal axis.
as §3

[9] = tested on: IL-6; test: as above; assay type: cell-based, human; details: 250 μM, 72 h; Control 24 ± 3, LPS 1072 ± 4
Experimental: as §4, §3

[10] = tested on: IL-10; test: as above; assay type: cell-based, human; details: 250 μM, 72 h; Control 32 ± 1, LPS 315 ± 9
Experimental: as §3

[11] = tested on: IL-1b; test: as above; assay type: cell-based, human; details: 250 μM, 72 h; Control 12 ± 2, LPS 132 ± 2
Experimental: as §3

[12] = tested on: IL-8; test: as above; assay type: cell-based, human; details: 250 μM, 72 h; Control 345 ± 7, LPS 967 ± 8
Experimental: as §3

[13] = Rat obesity induced by cafeteria diet, preventative pre-treatment (Table 3); assay type: in vivo, Wistar Kyoto rats; details: 300 mg/kg oral, after two weeks on cafeteria diet; obese control 308 ± 17, lean control 280 ± 16; * lower than obese controls, ‡ indistinguishable
Experimental: as §2, §1

[14] = molecular target: T1, cyclooxygenases-1 (COX-1) (Homo sapiens, UniProt P23219); test: COX-1 activity in U937 differentiated monocytes (Cayman COX-1 inhibitor screening system); assay type: cell-based; details: 250 μM, 6 hours; compared with fatty acids not of Formula I, p<0.05
T1 construct: endogenous in cells; host or cells: U937 differentiated monocytes
T1 sequence (P23219 24-599): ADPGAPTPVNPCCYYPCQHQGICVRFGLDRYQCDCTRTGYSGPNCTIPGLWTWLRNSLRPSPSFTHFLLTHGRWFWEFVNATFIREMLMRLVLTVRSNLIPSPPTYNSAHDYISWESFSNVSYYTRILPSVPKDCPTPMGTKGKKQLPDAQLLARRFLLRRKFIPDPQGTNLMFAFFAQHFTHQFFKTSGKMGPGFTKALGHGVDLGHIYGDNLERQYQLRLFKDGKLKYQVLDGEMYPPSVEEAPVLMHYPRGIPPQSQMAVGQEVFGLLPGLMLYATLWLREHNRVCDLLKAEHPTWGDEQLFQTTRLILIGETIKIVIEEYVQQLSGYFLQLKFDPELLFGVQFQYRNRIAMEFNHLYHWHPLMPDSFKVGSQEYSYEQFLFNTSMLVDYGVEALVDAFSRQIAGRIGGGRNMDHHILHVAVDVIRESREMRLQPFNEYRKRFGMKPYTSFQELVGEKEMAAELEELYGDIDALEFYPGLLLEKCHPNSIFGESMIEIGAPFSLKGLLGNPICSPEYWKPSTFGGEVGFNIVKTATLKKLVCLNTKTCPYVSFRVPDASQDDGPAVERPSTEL
Experimental: FIG. 19A. Effect of various fatty acids in the inhibition of the activity of cyclooxygenases-1 (COX-1) (Cayman COX-1 inhibitor screening system). […] Cell cultures (U937 differentiated monocytes) were treated with the fatty acids of the invention (250 μM, 6 hours).
as §3

[15] = tested on: A549 cells of human lung adenocarcinoma; test: Prevention of tumour development in nude mice injected with A549 cells; assay type: in vivo; details: 400 mg/kg per day oral, 2 weeks before and one month after A549 injection, compared with fatty acids not of Formula I, p<0.05
From the text: FIG. 2. Preventative effect of various fatty acids against tumour development. […] Animals received treatment before injection of tumour cells and the treatment was subsequently maintained. Animals of the control group were not treated and the volume of their tumours was taken as the reference value (100%).
To determine whether the fatty acids of the invention have applications in the prevention of the development of tumour processes, an animal cancer model was used. This model consisted of immune-deprived animals ([Crl:Nu(Ico)-Fox 1] nude mice in which non-microcytic human lung cancer cells were injected (5×10^6 A549 cells per animal). The control group (infected with cancer cells but untreated) started to develop tumours that were visible after a few days. The sizes of the tumours were measured for the first time at 10 days after implanting the tumour and measurements continued for up to 31 days after the implantation with a digital calliper. The volume of the tumours was calculated with the following equation: v=w^2×l/2 where v is the volume of the tumour, w is its width and l is the length. Preventative treatments against development of the cancer were applied. To carry out these treatments, 400 mg/kg were administered per day for 2 weeks before the injection of tumour cells. This treatment was continued for one month after the implantation of the tumour cells and the volume of the tumours in the animals was measured. Each experimental group was composed of 8 animals. Oral administration of α-derivatives of cis-monounsaturated fatty acids prevented cancer development (A549 cells of human lung adenocarcinoma) (FIG. 2). […] Therefore it was concluded that the introduction of a double bond in the cis configuration in the structure of the fatty acid is a critical factor in the prevention and treatment by fatty acids of cancer development.

IC50 [2]	IC50 [5]	cellular concentration of COX-2 (% of control) [7]	inhibition of COX-1 activity (% of control) [14]	SMILES	Body weight (g) (control = 311 g) [1]	% control CHO (cholesterol) [3]	% control TG (triglycerides) [3]	volume of tumours (percent compared to control) [4]	PA (control 214 mmHg) [6]	TNF-α, LPS + OHHD [8]	IL-6, LPS + OHHD [9]	IL-10, LPS + OHHD [10]	IL-1b, LPS + OHHD [11]	IL-8, LPS + OHHD [12]	Final weight [13]	tumour volume (prevention of tumour development) [15]
81 µM	85 µM			CCCCCCCC/C=C\CCCCCCC(O)C(=O)O.N (stereo not shown) [NH3-OHOD]	290 g	59 % control	62 % control	significant reductions in the size of tumours	149 mmHg							
		more significant effect	more significant effect	CCCCCC/C=C\CCCCCCC(O)C(=O)O (stereo not drawn) [OHHD, α-Hydroxy-cis-Δ9-hexadecenoic]						65 ± 9 pg/mL	68 ± 8 pg/mL	53 ± 3 pg/mL	41 ± 5 pg/mL	529 ± 7 pg/mL	275 ± 19* g	more significant effect

From patent US9730906B2, “α-derivatives of cis-monounsaturated fatty acids for use as medicines” (UNIVERSITAT DE LES ILLES BALEARS, priority 2008, dated 2017)
